Data as given in ChEMBL document CHEMBL1201862, “PubChem BioAssay data set” (2004).
Activity calls are given as the source filed them.

Columns and labels:
Type in all cases: functional
[1] = target: T1, High affinity choline transporter 1 (Homo sapiens, UniProt Q9GZV3); assay: CHT inhibitors, dose response, cell-based, 5-point CRC, membrane potential dye (AID 504840)
T1 sequence (Q9GZV3 whole entry): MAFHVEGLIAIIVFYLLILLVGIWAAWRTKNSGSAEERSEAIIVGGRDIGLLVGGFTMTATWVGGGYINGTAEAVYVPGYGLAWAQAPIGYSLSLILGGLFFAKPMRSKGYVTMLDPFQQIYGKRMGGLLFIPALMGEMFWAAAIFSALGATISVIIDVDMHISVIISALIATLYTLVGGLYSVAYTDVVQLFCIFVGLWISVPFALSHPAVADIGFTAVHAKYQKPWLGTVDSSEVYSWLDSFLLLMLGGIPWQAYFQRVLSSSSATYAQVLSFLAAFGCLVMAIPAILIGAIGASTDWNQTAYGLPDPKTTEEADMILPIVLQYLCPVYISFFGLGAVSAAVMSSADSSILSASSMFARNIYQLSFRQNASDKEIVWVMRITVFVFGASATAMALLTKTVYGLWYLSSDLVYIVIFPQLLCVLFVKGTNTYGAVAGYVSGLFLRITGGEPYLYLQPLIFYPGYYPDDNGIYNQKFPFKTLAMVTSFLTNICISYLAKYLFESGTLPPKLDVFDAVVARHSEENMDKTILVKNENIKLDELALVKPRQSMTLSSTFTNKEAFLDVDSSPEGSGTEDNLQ

[2] = target: T1, High affinity choline transporter 1; assay: CHT inhibitors, dose response, cell-based, 10-point CRC, membrane potential dye (AID 588401);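 further: membrane potential dye fluorescence of choline-evoked depolarization via CHT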
[3] = target: Receptor-type tyrosine-protein kinase FLT3 (Homo sapiens, UniProt P36888);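 further: FLT3 was tested as one member of a kinome-wide kinase panel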
[4] = target: Dual specificity protein kinase CLK4 (Homo sapiens, UniProt Q9HAZ1)
[5] = target: Fibroblast growth factor receptor 1 (Homo sapiens, UniProt P11362)
[6] = (§1) Counterscreen for antagonists of the orexin 1 receptor (OX1R; HCRTR1): Fluorescence-based cell-based high throughput dose response assay to identify antagonists of the parental CHO cell line. [Related pubchem assays (depositor defined):AID434989, AID435008, AID463079, AID485270, AID492963, AID492964, AID492965, AID493232, AID504699, AID504701]
[7] = target: T2, Orexin receptor type 2 (Homo sapiens, UniProt O43614); assay: Counterscreen assay for antagonists of the orexin 1 receptor (OX1R; HCRTR1): Homogeneous Time Resolved Fluorescence (HTRF)-based cell-based dose response assay for antagonists of the orexin 2 receptor (OX2R; HCRTR2), run by assay provider.
[8] = target: T3, Orexin/Hypocretin receptor type 1 (Homo sapiens, UniProt O43613); assay: Homogeneous Time Resolved Fluorescence (HTRF)-based cell-based high throughput dose response assay for antagonists of the orexin 1 receptor (OX1R; HCRTR1). [Related pubchem assays (depositor defined):AID434989, AID435008, AID463079, AID485270, AID492963, AID492964, AID492965, AID493232, AID504717, AID504718]
T3 sequence (O43613 whole entry): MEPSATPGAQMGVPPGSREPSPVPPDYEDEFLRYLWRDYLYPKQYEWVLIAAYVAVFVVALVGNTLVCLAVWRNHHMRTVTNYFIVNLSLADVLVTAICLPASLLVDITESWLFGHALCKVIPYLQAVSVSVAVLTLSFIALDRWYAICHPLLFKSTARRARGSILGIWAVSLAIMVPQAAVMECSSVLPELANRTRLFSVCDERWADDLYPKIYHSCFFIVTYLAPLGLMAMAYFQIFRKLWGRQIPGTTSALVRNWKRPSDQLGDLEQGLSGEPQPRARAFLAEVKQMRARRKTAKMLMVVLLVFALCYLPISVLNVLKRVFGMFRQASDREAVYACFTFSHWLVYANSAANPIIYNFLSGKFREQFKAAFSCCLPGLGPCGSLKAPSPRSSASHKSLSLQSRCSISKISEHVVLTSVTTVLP

[9] = target: T3, Orexin/Hypocretin receptor type 1; assay: Fluorescence-based cell-based high throughput dose response assay for antagonists of the orexin 1 receptor (OX1R; HCRTR1). [Related pubchem assays (depositor defined):AID434989, AID435008, AID463079, AID485270, AID492963, AID492964, AID492965, AID493232, AID504717, AID504718]
[10] = target: T2, Orexin receptor type 2; assay: Counterscreen assay for antagonists of the orexin 1 receptor (OX1R; HCRTR1): Fluorescence-based cell-based dose response assay for antagonists of the orexin 2 receptor (OX2R; HCRTR2), run by assay provider.
[11] = test system: CHO-K1; assay: as §1, with “Homogeneous time resolved fluorescence (HTRF)-based” for “Fluorescence-based”, “cell-based” for “cell-based high throughput”, “CHO-K1” for “CHO”; details: Cricetulus griseus;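 further: potency for inhibition of ATP-stimulated IP1 production as antagonists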
[12] = target: Cyclin-dependent kinase 8 (Homo sapiens, UniProt P49336); assay: Navigating the Kinome. Panel member name: CDK8
[13] = target: Vascular endothelial growth factor receptor 1 (Homo sapiens, UniProt P17948);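 further: measured within a kinome-wide profiling panel, FLT1 as the panel member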
[14] = target: Leucine-rich repeat serine/threonine-protein kinase 2 (Homo sapiens, UniProt Q5S007);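 further: value from a broad kinome-wide panel profiling study in which LRRK2 was one of the kinases tested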
[15] = target: Serine/threonine-protein kinase PLK4 (Homo sapiens, UniProt O00444);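 further: PLK4 measured as one member of a kinome-wide kinase profiling panel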
[16] = target: RAC-alpha serine/threonine-protein kinase (Homo sapiens, UniProt P31749);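 further: AKT1 affinity measured as one member of a kinome-wide kinase profiling panel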
[17] = target: Hepatocyte growth factor receptor (Homo sapiens, UniProt P08581);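 further: kinase panel profiling across the kinome, with MET as the panel member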
[18] = target: Serine/threonine-protein kinase Chk1 (Homo sapiens, UniProt O14757);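 further: measured as one member of a kinome-wide kinase profiling panel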
[19] = target: Serine/threonine-protein kinase PLK3 (Homo sapiens, UniProt Q9H4B4)
[20] = target: Vascular endothelial growth factor receptor 2 (Homo sapiens, UniProt P35968)
[21] = target: Insulin receptor (Homo sapiens, UniProt P06213);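 further: insulin receptor kinase tested as one member of a kinome-wide kinase panel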
[22] = target: RAC-gamma serine/threonine-protein kinase (Homo sapiens, UniProt Q9Y243)
[23] = target: Serine/threonine-protein kinase PLK1 (Homo sapiens, UniProt P53350);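 further: PLK1 measured as one member of a kinome-wide profiling panel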
[24] = target: Serine/threonine-protein kinase pim-1 (Homo sapiens, UniProt P11309)
[25] = target: Serine/threonine-protein kinase pim-3 (Homo sapiens, UniProt Q86V86);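 further: value obtained as one member of a broad kinase panel profiling effort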
[26] = target: ALK tyrosine kinase receptor (Homo sapiens, UniProt Q9UM73);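 further: ALK tested as one member of a kinase panel screen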
[27] = target: Cyclin-dependent kinase 19 (Homo sapiens, UniProt Q9BWU1); assay: Navigating the Kinome. Panel member name: CDC2L6
[28] = target: Mitogen-activated protein kinase 13 (Homo sapiens, UniProt O15264)
[29] = target: BDNF/NT-3 growth factors receptor (Homo sapiens, UniProt Q16620);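 further: NTRK2 measured as one member of a broad kinome-wide kinase profiling panel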
[30] = target: High affinity nerve growth factor receptor (Homo sapiens, UniProt P04629);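 further: NTRK1 tested as one member of a kinome-wide profiling panel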

T2 sequence (O43614 whole entry): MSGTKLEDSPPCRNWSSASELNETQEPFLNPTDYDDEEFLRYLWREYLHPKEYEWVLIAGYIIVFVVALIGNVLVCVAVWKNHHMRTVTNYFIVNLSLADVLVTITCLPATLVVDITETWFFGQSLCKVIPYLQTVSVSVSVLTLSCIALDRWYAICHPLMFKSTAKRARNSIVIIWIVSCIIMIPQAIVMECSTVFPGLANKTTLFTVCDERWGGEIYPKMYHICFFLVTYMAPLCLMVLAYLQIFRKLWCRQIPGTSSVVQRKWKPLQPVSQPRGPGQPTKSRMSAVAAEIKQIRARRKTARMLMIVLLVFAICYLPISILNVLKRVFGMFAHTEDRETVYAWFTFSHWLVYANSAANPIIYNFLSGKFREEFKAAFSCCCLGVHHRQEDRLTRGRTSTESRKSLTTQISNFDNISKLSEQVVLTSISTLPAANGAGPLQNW
Receptor-type tyrosine-protein kinase FLT3, sequence (P36888 whole entry): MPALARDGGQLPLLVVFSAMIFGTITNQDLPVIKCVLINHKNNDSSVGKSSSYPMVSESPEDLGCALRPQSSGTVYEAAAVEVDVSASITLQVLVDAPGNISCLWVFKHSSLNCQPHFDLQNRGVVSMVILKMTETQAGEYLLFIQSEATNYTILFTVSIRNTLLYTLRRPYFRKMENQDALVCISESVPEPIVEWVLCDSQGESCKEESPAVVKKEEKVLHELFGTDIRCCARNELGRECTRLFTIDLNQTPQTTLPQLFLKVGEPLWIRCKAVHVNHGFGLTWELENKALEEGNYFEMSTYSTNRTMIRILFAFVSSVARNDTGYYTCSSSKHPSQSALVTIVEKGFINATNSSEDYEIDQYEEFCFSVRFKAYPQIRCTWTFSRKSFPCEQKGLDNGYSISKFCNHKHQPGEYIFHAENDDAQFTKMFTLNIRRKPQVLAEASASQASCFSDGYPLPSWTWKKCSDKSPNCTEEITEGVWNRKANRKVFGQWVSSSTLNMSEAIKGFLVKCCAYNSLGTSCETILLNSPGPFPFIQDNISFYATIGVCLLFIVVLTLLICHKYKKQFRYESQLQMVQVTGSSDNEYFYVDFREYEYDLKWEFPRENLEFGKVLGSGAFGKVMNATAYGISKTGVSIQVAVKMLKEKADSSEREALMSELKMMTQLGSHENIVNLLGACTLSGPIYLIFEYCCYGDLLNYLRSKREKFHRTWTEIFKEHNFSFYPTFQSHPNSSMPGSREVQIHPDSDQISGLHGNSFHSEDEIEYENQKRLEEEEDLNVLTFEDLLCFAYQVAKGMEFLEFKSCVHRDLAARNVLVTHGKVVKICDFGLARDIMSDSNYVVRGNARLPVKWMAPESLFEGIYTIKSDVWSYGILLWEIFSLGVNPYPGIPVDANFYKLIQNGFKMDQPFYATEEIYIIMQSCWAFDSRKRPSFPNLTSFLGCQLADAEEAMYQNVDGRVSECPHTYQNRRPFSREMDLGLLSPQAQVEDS
Fibroblast growth factor receptor 1, sequence (P11362 whole entry): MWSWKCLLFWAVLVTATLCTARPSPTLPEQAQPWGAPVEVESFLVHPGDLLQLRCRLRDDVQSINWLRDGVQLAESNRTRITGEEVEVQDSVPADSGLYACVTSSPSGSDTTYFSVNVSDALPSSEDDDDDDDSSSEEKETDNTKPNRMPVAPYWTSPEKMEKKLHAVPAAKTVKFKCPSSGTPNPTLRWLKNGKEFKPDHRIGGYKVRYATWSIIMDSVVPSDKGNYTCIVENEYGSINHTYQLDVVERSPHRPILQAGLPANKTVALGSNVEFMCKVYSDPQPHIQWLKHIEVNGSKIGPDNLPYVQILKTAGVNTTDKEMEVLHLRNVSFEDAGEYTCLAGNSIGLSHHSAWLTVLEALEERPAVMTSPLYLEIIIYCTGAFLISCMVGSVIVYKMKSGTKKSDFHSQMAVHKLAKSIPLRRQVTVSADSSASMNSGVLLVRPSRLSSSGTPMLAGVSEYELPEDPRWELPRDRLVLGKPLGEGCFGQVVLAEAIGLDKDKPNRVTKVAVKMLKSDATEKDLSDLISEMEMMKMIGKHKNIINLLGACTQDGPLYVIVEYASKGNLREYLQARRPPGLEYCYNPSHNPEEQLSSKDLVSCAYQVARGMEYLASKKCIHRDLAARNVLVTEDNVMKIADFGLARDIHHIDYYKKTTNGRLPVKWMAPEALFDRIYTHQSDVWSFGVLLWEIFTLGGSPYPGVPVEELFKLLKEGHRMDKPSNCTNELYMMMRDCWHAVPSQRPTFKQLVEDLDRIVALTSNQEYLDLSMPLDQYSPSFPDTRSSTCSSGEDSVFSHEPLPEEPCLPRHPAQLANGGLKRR
Serine/threonine-protein kinase PLK3, sequence (Q9H4B4 whole entry): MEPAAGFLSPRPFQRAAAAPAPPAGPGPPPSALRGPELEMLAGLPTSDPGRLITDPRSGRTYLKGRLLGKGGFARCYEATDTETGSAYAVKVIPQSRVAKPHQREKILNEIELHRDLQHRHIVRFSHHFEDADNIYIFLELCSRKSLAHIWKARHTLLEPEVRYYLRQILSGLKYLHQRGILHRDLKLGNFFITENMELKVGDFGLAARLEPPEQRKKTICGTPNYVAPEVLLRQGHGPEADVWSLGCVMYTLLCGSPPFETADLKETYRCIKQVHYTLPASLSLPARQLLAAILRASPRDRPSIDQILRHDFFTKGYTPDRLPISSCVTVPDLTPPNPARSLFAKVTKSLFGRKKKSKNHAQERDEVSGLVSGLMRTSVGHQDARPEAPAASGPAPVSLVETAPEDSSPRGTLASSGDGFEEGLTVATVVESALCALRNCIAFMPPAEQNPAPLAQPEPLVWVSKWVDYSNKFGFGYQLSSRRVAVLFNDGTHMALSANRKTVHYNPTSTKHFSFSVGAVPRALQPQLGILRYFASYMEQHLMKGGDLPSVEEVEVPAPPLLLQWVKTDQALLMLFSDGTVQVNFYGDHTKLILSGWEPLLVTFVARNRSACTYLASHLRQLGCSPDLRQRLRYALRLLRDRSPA
Serine/threonine-protein kinase PLK4, sequence (O00444 whole entry): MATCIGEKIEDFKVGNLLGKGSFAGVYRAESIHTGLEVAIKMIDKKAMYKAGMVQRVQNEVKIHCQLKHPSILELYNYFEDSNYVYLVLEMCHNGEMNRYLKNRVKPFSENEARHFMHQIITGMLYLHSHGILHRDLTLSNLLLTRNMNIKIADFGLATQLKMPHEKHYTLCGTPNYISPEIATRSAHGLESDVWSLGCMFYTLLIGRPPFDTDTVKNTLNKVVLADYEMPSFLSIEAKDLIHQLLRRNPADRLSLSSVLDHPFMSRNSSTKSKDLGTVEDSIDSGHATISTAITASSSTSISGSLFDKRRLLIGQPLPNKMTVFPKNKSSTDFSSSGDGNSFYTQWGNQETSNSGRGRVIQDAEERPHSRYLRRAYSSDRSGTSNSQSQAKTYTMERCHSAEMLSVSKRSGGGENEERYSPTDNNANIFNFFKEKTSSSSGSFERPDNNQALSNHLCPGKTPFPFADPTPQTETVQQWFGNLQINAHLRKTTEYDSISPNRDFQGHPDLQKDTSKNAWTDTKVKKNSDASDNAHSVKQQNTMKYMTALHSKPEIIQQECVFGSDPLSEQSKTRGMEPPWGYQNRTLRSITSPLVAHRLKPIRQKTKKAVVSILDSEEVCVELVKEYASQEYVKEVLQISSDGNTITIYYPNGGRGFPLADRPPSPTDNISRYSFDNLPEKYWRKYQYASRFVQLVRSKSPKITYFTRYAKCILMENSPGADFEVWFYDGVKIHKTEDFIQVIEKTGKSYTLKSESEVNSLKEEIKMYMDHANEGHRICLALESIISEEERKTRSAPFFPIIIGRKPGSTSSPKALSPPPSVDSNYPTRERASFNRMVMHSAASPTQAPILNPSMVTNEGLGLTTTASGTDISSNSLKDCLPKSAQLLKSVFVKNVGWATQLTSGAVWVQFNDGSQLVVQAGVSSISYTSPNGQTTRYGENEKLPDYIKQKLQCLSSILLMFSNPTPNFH
RAC-gamma serine/threonine-protein kinase, sequence (Q9Y243 whole entry): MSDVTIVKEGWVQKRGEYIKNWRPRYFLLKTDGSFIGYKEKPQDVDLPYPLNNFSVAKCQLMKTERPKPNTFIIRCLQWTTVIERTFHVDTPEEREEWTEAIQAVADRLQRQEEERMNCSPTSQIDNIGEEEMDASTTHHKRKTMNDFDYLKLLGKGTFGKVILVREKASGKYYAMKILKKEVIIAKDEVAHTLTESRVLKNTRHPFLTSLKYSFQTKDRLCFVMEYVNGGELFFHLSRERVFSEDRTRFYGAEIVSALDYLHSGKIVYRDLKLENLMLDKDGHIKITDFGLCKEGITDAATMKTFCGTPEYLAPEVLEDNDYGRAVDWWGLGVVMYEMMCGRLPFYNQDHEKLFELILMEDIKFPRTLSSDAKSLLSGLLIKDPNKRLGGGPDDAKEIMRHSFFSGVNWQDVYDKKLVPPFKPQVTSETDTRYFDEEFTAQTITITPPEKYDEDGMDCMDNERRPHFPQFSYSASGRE
Serine/threonine-protein kinase PLK1, sequence (P53350 whole entry): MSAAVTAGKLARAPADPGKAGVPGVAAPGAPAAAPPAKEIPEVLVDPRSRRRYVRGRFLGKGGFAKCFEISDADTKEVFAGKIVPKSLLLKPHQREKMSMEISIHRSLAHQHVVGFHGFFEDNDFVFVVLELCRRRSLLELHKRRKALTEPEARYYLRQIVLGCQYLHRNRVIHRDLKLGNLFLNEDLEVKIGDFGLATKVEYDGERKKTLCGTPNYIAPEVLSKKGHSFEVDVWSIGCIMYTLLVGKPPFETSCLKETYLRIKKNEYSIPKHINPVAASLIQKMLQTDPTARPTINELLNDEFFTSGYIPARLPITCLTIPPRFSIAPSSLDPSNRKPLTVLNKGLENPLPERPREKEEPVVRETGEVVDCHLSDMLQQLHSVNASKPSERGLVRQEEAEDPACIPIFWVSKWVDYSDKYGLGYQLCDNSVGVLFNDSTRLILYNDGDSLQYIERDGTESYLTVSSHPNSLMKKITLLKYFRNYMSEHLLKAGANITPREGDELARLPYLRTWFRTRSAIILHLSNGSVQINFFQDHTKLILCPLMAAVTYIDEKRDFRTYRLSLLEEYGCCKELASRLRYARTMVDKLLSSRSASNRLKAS

SMILES: Cc1ccc(C)[n+](CC(=O)c2ccc(-c3ccccc3)cc2)c1
- IC50 [1]: 10.3 µM (active)
- IC50 [2]: 10.8 µM (active)

SMILES: CC(C)(C)c1ccc2nc(-c3n[nH]c4ccc(Br)cc34)[nH]c2c1
- Ki [3]: 2.51 µM (active)
- Ki [4]: 1.26 µM (active)
- Ki [5]: 3.16 µM (active)

SMILES: Sc1nnc(-c2cc(-c3ccccc3)[nH]n2)n1/N=C/c1cccs1
- IC50 [6]: > 49.7 µM (inactive)
- IC50 [7]: > 50 µM (inactive)
- IC50 [8]: 8.08 µM (active)
- IC50 [9]: > 49.7 µM (inactive)
- IC50 [10]: > 88.8 µM (inactive)
- IC50 [11]: > 66.2 µM (inactive)

SMILES: O=C(O)C1CN(Cc2ccc(CCc3cccc(C(F)(F)F)c3)cc2)C1
- Ki [12]: 3.16 µM (active)

SMILES: COc1ccc(CNC(=O)c2sc3nc(C)cc(C)c3c2N)cc1
- Ki [13]: 3.16 µM (active)
- Ki [14]: 1 µM (active)

SMILES: Nc1n[nH]c2c(Cl)cccc12
- Ki [15]: > 39.8 µM (inactive)
- Ki [3]: 2.51 µM (active)
- Ki [16]: > 79.4 µM (inactive)
- Ki [17]: > 31.6 µM (inactive)
- Ki [18]: 25.1 µM (active)
- Ki [19]: 10 µM (active)
- Ki [5]: > 50.1 µM (inactive)
- Ki [20]: > 79.4 µM (inactive)
- Ki [21]: > 50.1 µM (inactive)
- Ki [22]: > 100 µM (inactive)
- Ki [23]: > 79.4 µM (inactive)
- Ki [24]: > 100 µM (inactive)
- Ki [25]: > 79.4 µM (inactive)

SMILES: Cn1cc(Nc2ncc(Br)c(Nc3ccccc3Cl)n2)cn1
- Ki [26]: 0.0631 µM (active)
- Ki [27]: 1 µM (active)

SMILES: CS(=O)(=O)Nc1cc2c(cc1Cl)NC(=O)Nc1cnc(C#N)c(n1)OCCCCCO2
- Ki [28]: > 7.94 µM (inactive)

SMILES: COc1ccc(COc2ccc(Cc3cnc(N)nc3N)cc2OC)cc1 [GW632580X]
- Ki [29]: 0.158 µM (active)
- Ki [30]: 1.58 µM (active)
